Measurements taken from patent US20230365558A1, “TETRAHYDROISOQUINOLINE DERIVATIVE AND USE THEREOF” (MEDSHINE DISCOVERY INC., priority 2020, published 2023).
Read-outs that look alike come from different tables or passages of the source.

Key:
[1] = test system: Z-138 non-Hodgkin's lymphoma cells; test: In vitro anti-proliferation assay of Z-138 cells (CellTiter-Glo, 6 days); format: cell-based, human; conditions: read-out: IC50 (nM), in vitro anti-proliferative activity on Z-138 tumor cells
Protocol: The plate was incubated at 37° C., CO2 and 100% relative humidity for 6 days. Samples were processed using Promega CellTiter-Glo Luminescent Cell Viability Assay Kit (Promega-G7571) standard method, and the luminescent signal was detected on a TECAN Spark®10M plate reader. Raw data were used to calculate the inhibition rate of the test compounds using the following equation: […]
(§1) The inhibition rates were imported into Excel separately to calculate the inhibition rates of compounds at different concentrations, and then XLfit software was used to plot inhibition curves and calculate relevant parameters, including minimum inhibition rate, maximum inhibition rate and IC50.

PRMT5 enzyme = PRMT5 enzyme (Homo sapiens (Human), UniProt O14744); test: PRMT5 enzyme inhibitory activity assay (LANCE Ultra TR-FRET); format: biochemical
PRMT5 enzyme, sequence (O14744 whole entry): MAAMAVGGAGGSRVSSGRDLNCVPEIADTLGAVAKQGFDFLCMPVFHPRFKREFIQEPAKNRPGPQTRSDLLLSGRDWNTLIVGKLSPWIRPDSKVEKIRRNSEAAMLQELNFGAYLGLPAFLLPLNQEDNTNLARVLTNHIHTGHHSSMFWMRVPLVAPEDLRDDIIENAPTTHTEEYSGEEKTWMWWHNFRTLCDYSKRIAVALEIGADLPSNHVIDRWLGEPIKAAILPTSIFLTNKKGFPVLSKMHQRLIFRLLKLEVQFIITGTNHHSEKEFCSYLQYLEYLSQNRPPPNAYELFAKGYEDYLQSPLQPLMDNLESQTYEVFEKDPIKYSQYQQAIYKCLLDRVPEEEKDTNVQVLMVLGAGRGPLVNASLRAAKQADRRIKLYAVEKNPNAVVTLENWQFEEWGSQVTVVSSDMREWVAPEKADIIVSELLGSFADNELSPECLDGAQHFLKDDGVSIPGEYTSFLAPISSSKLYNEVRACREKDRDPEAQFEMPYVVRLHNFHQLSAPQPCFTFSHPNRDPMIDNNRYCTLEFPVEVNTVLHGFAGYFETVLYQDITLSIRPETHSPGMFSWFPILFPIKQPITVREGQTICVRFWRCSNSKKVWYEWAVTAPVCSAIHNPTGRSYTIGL
PRMT5 enzyme, sequence (Q9BQA1 whole entry partner): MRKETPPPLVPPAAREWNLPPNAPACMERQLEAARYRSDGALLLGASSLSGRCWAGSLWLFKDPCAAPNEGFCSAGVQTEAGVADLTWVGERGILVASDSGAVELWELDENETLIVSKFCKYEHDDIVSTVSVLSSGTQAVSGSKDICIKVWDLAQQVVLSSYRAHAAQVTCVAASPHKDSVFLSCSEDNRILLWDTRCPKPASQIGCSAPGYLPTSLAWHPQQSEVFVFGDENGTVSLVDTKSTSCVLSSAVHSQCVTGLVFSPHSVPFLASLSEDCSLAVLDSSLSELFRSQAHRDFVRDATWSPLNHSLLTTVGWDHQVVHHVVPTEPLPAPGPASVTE
Protocol: Experimental objective: To test the inhibitory effect of compounds on PRMT5 enzyme activity
Experimental materials: PRMT5 enzyme
The plate was incubated at 25° C. for 30 min, then added with substrate, and reacted at 25° C. for 90 min. After 90 min, the detection reagent was added to the 384-well plate using PerkinElmer LANCE Ultra TR-FRET standard method to combine with the enzyme-substrate reaction product. […] Raw data were used to calculate the inhibition rate of the test compounds using the following equation: […]
as §1

[2] = Pharmacokinetic evaluation in CD-1 mice; conditions: CD-1 mice
Protocol: Experimental objective: To study the pharmacokinetic parameters of the compounds in CD-1 mice
Animal experimental design: Male CD-1 mice (28.08 to 29.01 g, 6 to 7 weeks old), purchased from Shanghai Family Planning Research Institute, n=2/group, 4 mice in total; blood collection time points (h): 0.083 (intravenous injection only), 0.25 (intragastric administration only), 0.5, 1, 2, 4, 8, 10 and 24; compound dose by tail vein injection: 1 mg/kg; single dose by intragastric administration: 5 mg/kg; intravenous and intragastric administration vehicles: 20% N,N-dimethylacetamide aqueous solution, 20% hydroxypropyl-β-cyclodextrin aqueous solution, 5% DMSO/50% PEG400/45% water for injection or 10% Solutol/30% PEG400/60% water for injection. All animals had free access to water during the experiment, fasted overnight before administration, and resumed food supply 4 hours after administration. The entire animal experiment complied with the Institutional Animal Care and Use Committee (IACUC) animal welfare.
Sample collection and storage: After administration, approximately 0.03 mL of blood was collected from the saphenous vein of the mouse at each time point into a pre-frozen commercial EDTA-K2 tube, and placed on wet ice until centrifugation. Blood samples were centrifuged at 4° C., 3,200 g for 10 min. Plasma was collected separately, transferred to a pre-labeled 96-well plate, fast frozen on dry ice, and stored at −70±10° C. until LC-MS/MS analysis.
Pre-treatment of plasma samples: 3 μL of unknown, standard curve, QC, diluted QC and single and double blank samples were taken and placed in 1.5 mL tubes, and 60 μL of internal standard solution (internal standard: Labetalol 100 ng/mL acetonitrile solution, double blank with the same volume of pure acetonitrile) was added. The samples were vortexed for at least 15 seconds, and centrifuged at 4° C., 12,000 g for 15 min. 50 μL of the supernatant was taken and placed on a clean 96-well plate, and 200 μL of 70% acetonitrile was added. The plate was vortex at 800 rpm for 10 min, and centrifuged at 4° C., 3,220 g for 5 min. 2.0 μL of the supernatant was taken for LC-MS/MS analysis. 10-fold sample dilution procedure: 2 μL of the sample was added to 18 μL of blank matrix; 2-fold sample dilution procedure: 2 μL of the sample was added to 2 μL of blank matrix. Plasma was processed in the same manner as undiluted samples. The linear range was 4.00 to 6000 nM. Plasma concentrations would be analyzed with Triple Quad 6500 Plus, and pharmacokinetic parameters would be calculated with Phoenix WinNonlin 6.3.

[3] = test system: MDA-MB-468 human breast cancer cells; test: Anti-proliferative activity on MDA-MB-468 cells (CellTiter-Glo, 7 days); format: cell-based; conditions: read-out: IC50 (nM), in vitro anti-proliferative activity on MDA-MB-468 tumor cells
Protocol: CellTiter-Glo (chemiluminescent cell viability detection reagent, purchased from Promega).
MDA-MB-468 cells were planted in a white 384-well plate with 40 μL of cell suspension per well, which contained 1000 MDA-MB-468 cells. The cell plate was cultured in a CO2 incubator overnight. […] 78 μL of culture medium was added to a middle plate, and then 2 μL of gradient diluted compound per well was transferred to the middle plate according to the corresponding position. After being thoroughly mixed, 10 μL per well was transferred to the cell plate. […] The cell plate was cultured in a CO2 incubator for 7 days. Another cell plate was prepared, and the signal value was read on the day of administration as the maximum value (Max value in the equation below) to participate in data analysis. 10 μL of chemiluminescent cell viability detection reagent per well was added to the cell plate, and the plate was incubated at room temperature for 10 min to stabilize the luminescent signal. A multi-label analyzer was used for reading. After the incubation of the cell plate with the compound was completed, 10 μL of chemiluminescent cell viability detection reagent per well was added to the cell plate, and the plate was incubated at room temperature for 10 min to stabilize the luminescent signal. A multi-label analyzer was used for reading.

[4] = injection administration (1 mg/kg)

Row | SMILES | IC50 ([1]; Homo sapiens, Z-138, 144 h) | IC50 [1] | IC50 (PRMT5 enzyme) | also measured
1 | CCOC1CC2(C1)Oc1ccc(C(=O)NC[C@H](O)CN3CCc4ccccc4C3)cc1NC2=O (stereo partly shown) [Compound 22] | – | 12 nM | – | –
2 | COCCOC1CC2(C1)Oc1ccc(C(=O)NC[C@H](O)CN3CCc4ccccc4C3)cc1NC2=O (stereo partly shown) [Compound 23] | 23 nM | – | 18 nM | –
3 | COCCOC1CC2(C1)Oc1ccc(C(=O)NC[C@H](O)CN3CCc4ccccc4C3)cc1NC2=O (stereo partly shown) [Compound 24] | – | 22 nM | 15 nM | –
4 | O=C(NC[C@H](O)CN1CCc2ccccc2C1)c1cnc2c(c1)NC(=O)C1(CC(F)(F)C1)O2 [Compound 29] | – | 6 nM | 16 nM | Clearance rate CL [2, 4]: 37.9 mL/min/kg; Concentration integral AUC [2, 4]: 0.981 µM·h; Half-life T1/2 [2, 4]: 35.4 min; Bioavailability F ([2]; oral administration (5 mg/kg)): 8.99%; Concentration integral AUC ([2]; oral administration (5 mg/kg)): 0.441 µM·h
5 | O=C(NC[C@H](O)CN1CCc2ccccc2C1)c1ccc2c(c1)NC(=O)[C@@]1(CCOC1)O2 [Compound 35] | – | 22 nM | 11 nM | –
6 | O=C(NC[C@H](O)CN1CCc2ccccc2C1)c1ccc2c(c1)NC(=O)[C@]1(CCOC1)O2 [Compound 36] | – | 7 nM | 7 nM | Clearance rate CL [2, 4]: 66.3 mL/min/kg; Concentration integral AUC [2, 4]: 0.576 µM·h; Half-life T1/2 [2, 4]: 13.2 min; Bioavailability F ([2]; oral administration (5 mg/kg)): 37.9%; Concentration integral AUC ([2]; oral administration (5 mg/kg)): 1.092 µM·h
7 | O=C(NC[C@H](O)CN1CCc2ccccc2C1)c1ccc2c(c1)NC(=O)C1(CS(=O)(=O)C1)O2 [Compound 37] | – | 8 nM | 8 nM | –
8 | O=C(NC[C@H](O)CN1CCc2ccccc2C1)c1cnc2c(c1)NC(=O)C21CC1 [Compound 42] | – | 53 nM | – | –
9 | COc1cc2c(cc1C(=O)NC[C@H](O)CN1CCc3ccccc3C1)NC(=O)C1(CC1)O2 [Compound 47] | – | 66.8 nM | 42 nM | –
10 | O=C(NC[C@H](O)CN1CCc2ccccc2C1)c1ccc2c(c1)NC(=O)[C@H]1C[C@@H]21 [Compound 49b] | – | 13.1 nM | 26.2 nM | IC50 [3]: 4.2 nM

Now from value to compound, other results behind:

Row | IC50 ([1]; Homo sapiens, Z-138, 144 h) | SMILES | IC50 [1] | IC50 (PRMT5 enzyme) | also measured
11 | 22 nM | CC(C)OC1CC2(C1)Oc1ccc(C(=O)NC[C@H](O)CN3CCc4ccccc4C3)cc1NC2=O (stereo partly shown) [Compound 26] | – | – | –
12 | 4 nM | O=C1CC2(C1)Oc1ccc(C(=O)NC[C@H](O)CN3CCc4ccccc4C3)cc1NC2=O [Compound 27] | – | – | –
13 | 10 nM | O=C(NC[C@H](O)CN1CCc2ccccc2C1)c1ccc2c(c1)NC(=O)C1(CC(F)(F)C1)O2 [Compound 28] | – | – | –
14 | 19 nM | O=C(NC[C@H](O)CN1CCc2ccccc2C1)c1cc2c(cc1F)OC1(CC1)C(=O)N2 [Compound 32] | – | – | –
15 | 18 nM | O=C(NC[C@H](O)CN1CCc2ccccc2C1)c1ccc2c(c1)NC(=O)C1(CSC1)O2 [Compound 38] | – | – | –
